# Measurements from ChEMBL document CHEMBL2176953, “Synthesis and evaluation of α-thymidine analogues as novel antimalarials” (J Med Chem, 2012).
# System: not listed separately
# Assay: Plasma protein binding in CD1 mouse after 5 hrs
# Details: not given
row,SMILES,fraction unbound at 5 h
1,Cc1cn([C@@H]2C[C@H](O)[C@@H](CNC(=O)Nc3ccc(-c4ccccc4)cc3)O2)c(=O)[nH]c1=O,0.08
2,Cc1cn([C@@H]2C[C@H](O)[C@@H](CNC(=O)Nc3ccc(Oc4ccccc4)cc3)O2)c(=O)[nH]c1=O,0.095
3,Cc1cn([C@@H]2C[C@H](O)[C@@H](CNC(=O)Nc3ccc(N4CCCCC4)cc3)O2)c(=O)[nH]c1=O,0.477
4,Cc1cn([C@@H]2C[C@H](O)[C@@H](CNC(=O)Nc3ccc(OCc4ccccc4)cc3)O2)c(=O)[nH]c1=O,0.188
5,Cc1cn([C@@H]2C[C@H](O)[C@@H](CNC(=O)Nc3ccc(OCc4ccccc4Cl)cc3)O2)c(=O)[nH]c1=O,0.059

# Target: T1, Thymidylate kinase (Plasmodium falciparum (isolate 3D7), UniProt Q8I4S1)
# T1 sequence (Q8I4S1 whole entry): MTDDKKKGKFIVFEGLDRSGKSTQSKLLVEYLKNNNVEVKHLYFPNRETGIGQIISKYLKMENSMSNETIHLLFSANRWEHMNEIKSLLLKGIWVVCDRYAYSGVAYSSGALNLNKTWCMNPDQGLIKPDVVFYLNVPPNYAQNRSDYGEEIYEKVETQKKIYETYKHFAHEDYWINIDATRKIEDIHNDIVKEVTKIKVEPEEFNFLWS
# Assay: Inhibition of recombinant Plasmodium falciparum TMPK using TMP as substrate by pyruvate kinase and lactate dehydrogenase enzyme coupled assay
# Details: not given
row,SMILES,Ki
1,Cc1cn([C@@H]2C[C@H](O)[C@@H](CNC(=S)Nc3ccc(Cl)cc3)O2)c(=O)[nH]c1=O,90 µM
2,Cc1cn([C@@H]2C[C@H](O)[C@@H](CNC(=O)Nc3cccc(Cl)c3)O2)c(=O)[nH]c1=O,106 µM
3,Cc1cn([C@@H]2C[C@H](O)[C@@H](CNC(=O)Nc3ccc(C(C)(C)C)cc3)O2)c(=O)[nH]c1=O,167 µM
4,Cc1cn([C@@H]2C[C@H](O)[C@@H](CNC(=O)Nc3ccc(Br)cc3)O2)c(=O)[nH]c1=O,> 1000 µM
5,Cc1cn([C@@H]2C[C@H](O)[C@@H](CNC(=O)Nc3ccc(Cl)cc3)O2)c(=O)[nH]c1=O,114 µM

# System: MRC5
# Assay: Cytotoxicity against human MRC5 cells
# Type: cell-based
# Details: not given
row,SMILES,CC50
1,Cc1cn([C@@H]2C[C@H](O)[C@@H](CNC(=O)Nc3ccc(Oc4ccccc4)cc3)O2)c(=O)[nH]c1=O,44 µM
2,Cc1cn([C@@H]2C[C@H](O)[C@@H](CNC(=S)Nc3ccc(Cl)cc3)O2)c(=O)[nH]c1=O,> 50 µM
3,Cc1cn([C@@H]2C[C@H](O)[C@@H](CNC(=O)Nc3cccc(Cl)c3)O2)c(=O)[nH]c1=O,> 50 µM
4,Cc1cn([C@@H]2C[C@H](O)[C@@H](CNC(=O)Nc3ccc(C(C)(C)C)cc3)O2)c(=O)[nH]c1=O,> 50 µM
5,Cc1cn([C@@H]2C[C@H](O)[C@@H](CNC(=O)Nc3ccc(OCc4ccccc4Cl)cc3)O2)c(=O)[nH]c1=O,29 µM
6,Cc1cn([C@@H]2C[C@H](O)[C@@H](CNC(=O)Nc3ccc(Br)cc3)O2)c(=O)[nH]c1=O,> 50 µM
7,Cc1cn([C@@H]2C[C@H](O)[C@@H](CNC(=O)Nc3ccc(Cl)cc3)O2)c(=O)[nH]c1=O,> 50 µM

# System: Plasmodium falciparum
# Assay: Antimalarial activity against erythrocytic stages of Plasmodium falciparum 3D7 infected in human O positive RBC after 48 hrs by SYBR-green assay
# Type: functional, organism-based
# Details: 3D7, 48 h
row,SMILES,EC50
1,Cc1cn([C@@H]2C[C@H](O)[C@@H](CNC(=O)Nc3ccc(-c4ccccc4)cc3)O2)c(=O)[nH]c1=O,0.29 µM
2,Cc1cn([C@@H]2C[C@H](O)[C@@H](CNC(=O)Nc3ccc(Oc4ccccc4)cc3)O2)c(=O)[nH]c1=O,0.24 µM
3,Cc1cn([C@@H]2C[C@H](O)[C@@H](CNC(=O)Nc3ccc(N4CCCCC4)cc3)O2)c(=O)[nH]c1=O,0.34 µM
4,Cc1cn([C@@H]2C[C@H](O)[C@@H](CNC(=O)Nc3ccc(OCc4ccccc4)cc3)O2)c(=O)[nH]c1=O,0.24 µM
5,Cc1cn([C@@H]2C[C@H](O)[C@@H](CNC(=S)Nc3ccc(Cl)cc3)O2)c(=O)[nH]c1=O,13 µM
6,Cc1cn([C@@H]2C[C@H](O)[C@@H](CNC(=O)Nc3cccc(Cl)c3)O2)c(=O)[nH]c1=O,4.8 µM
7,Cc1cn([C@@H]2C[C@H](O)[C@@H](CNC(=O)Nc3ccc(C(C)(C)C)cc3)O2)c(=O)[nH]c1=O,2.9 µM
8,Cc1cn([C@@H]2C[C@H](O)[C@@H](CNC(=O)Nc3ccc(OCc4ccccc4Cl)cc3)O2)c(=O)[nH]c1=O,0.028 µM
9,Cc1cn([C@@H]2C[C@H](O)[C@@H](CNC(=O)Nc3ccc(Br)cc3)O2)c(=O)[nH]c1=O,1.5 µM
10,Cc1cn([C@@H]2C[C@H](O)[C@@H](CNC(=O)Nc3ccc(Cl)cc3)O2)c(=O)[nH]c1=O,2.6 µM
